Article PMC10178506, “Chemical and Biological Evaluation of Novel 1H-Chromeno[3,2-c]pyridine Derivatives as MAO Inhibitors Endowed with Potential Anticancer Activity” (International Journal of Molecular Sciences, 2023)
Values joined by “and” are separate entries in the source; they are usually repeats but may differ in a detail not shown here. Equal values may be shown once. Read-outs that look alike come from different tables or passages of the source.

Legend:
human recombinant MAO A = biological target: T1, human recombinant MAO A (Homo sapiens, UniProt P21397); assay: biochemical; format: biochemical; conditions: for inhibition at 10 µM: read-out: hMAO-A % inhibition at 10 μM
T1 construct: purchased Sigma Aldrich (Milan, Italy); host or cells: baculovirus-infected insect cells
T1 sequence (P21397 1-527): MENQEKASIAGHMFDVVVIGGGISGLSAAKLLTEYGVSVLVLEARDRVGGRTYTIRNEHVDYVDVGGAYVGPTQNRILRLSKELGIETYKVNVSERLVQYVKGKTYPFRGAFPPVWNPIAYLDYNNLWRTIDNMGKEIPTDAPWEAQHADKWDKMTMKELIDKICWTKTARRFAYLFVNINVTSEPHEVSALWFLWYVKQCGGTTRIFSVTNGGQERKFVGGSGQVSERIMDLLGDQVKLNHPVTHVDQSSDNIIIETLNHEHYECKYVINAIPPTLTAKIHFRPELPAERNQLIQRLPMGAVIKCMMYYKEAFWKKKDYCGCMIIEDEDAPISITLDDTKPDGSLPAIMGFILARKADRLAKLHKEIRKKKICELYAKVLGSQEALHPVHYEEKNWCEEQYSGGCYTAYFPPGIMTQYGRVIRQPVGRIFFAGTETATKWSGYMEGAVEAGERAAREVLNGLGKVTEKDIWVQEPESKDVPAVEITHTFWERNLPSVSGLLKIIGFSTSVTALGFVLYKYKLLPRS
Description: (§1) Human isoforms of MAOs (from baculovirus-infected insect cells) and ChEs (human recombinant AChE and BChE from human serum), purchased from Sigma Aldrich (Milan, Italy), were used for inhibition assays. Experiments were performed in 96-well plates (Greiner Bio-One, Kremsmünster, Austria) on the Infinite M1000 Pro plate reader (Tecan, Cernusco s.N., Italy), using already published protocols.
After the addition of human recombinant MAO A (250 U/mg) or MAO B (59 U/mg) and a further 30 min of incubation, NaOH was added, and the fluorescence read at 310/400 nm excitation/emission wavelength. […] IC50 is expressed as mean ± SD of three independent measurements, each one performed in duplicate. For the kinetic study on the inhibition mechanism of MAO B, three diverse scalar concentrations of the inhibitor and seven concentrations of kynuramine were used.
(§2) The IC50 values, Michaelis–Menten curve fitting and inhibition constant (Ki) were calculated by nonlinear regression, using Prism software.

[1] = test system: SK-OV-3, human ovarian carcinoma with intrinsic resistance to cisplatin; assay: Antiproliferative activity, sulforhodamine-B (SRB) assay, SK-OV-3; format: cell-based; conditions: read-out: Antiproliferative activity IC50, SK-OV-3
Description: (§3) The SK-OV-3 ovarian cancer cell line, MCF-7 breast cancer line and HCT-116 colon cancer cell line were obtained from the National Cancer Institute, Biological Testing Branch (Frederick, MD, USA), and maintained in the logarithmic phase at 37 °C in a 5% CO2 humidified air in RPMI 1640 medium supplemented with 10% fetal calf serum, 2 mM glutamine, penicillin (100 U/mL) and streptomycin (0.1 mg/mL).
(§4) The growth inhibitory effects of compounds under investigation were compared to those of cisplatin (CDDP) and doxorubicin (DXR), used as positive controls, and evaluated by using the sulforhodamine-B (SRB) assay. Briefly, cells were seeded into 96-well microtiter plates in 100 µL of the appropriate culture medium at plating densities at 2500, 5000 and 8000 cells/well for MCF-7, HCT-116 and SKOV-3, respectively, depending upon the doubling time of individual cell lines. After seeding, microtiter plates were incubated at 37 °C for 24 h before adding the test compounds. After 24 h, several samples of each cell line were fixed in situ with cold trichloroacetic acid (TCA) to represent a measurement of the cell population at the time of compound addition. The test compounds were freshly dissolved in dimethyl sulfoxide (DMSO, 10^−2 M) and gradually diluted to different concentrations (0.79–50 µM) with a complete medium, so that the maximum DMSO/well ratio was 0.5% v/v. After the addition of different compound concentrations to triplicate wells, the plates were further incubated at 37 °C for 72 h. Cells were fixed in situ by the gentle addition of 50 µL of cold 50% w/v TCA (final concentration 10%) and incubated for 1 h at 4 °C. The supernatant was discarded, and the plates were washed with tap water and air-dried. SRB solution (100 µL) at 0.4% (w/v) in 1% acetic acid was added to each well, and the plates were incubated for 30 min at room temperature. After staining, the unbound dye was removed by washing with 1% acetic acid and the plates were air-dried. The bound stain was then solubilized with 10mM Trizma base and the absorbance was read on an automatic plate reader at 570 nm.

human recombinant MAO B = biological target: T2, human recombinant MAO B (Homo sapiens, UniProt P27338); assay: biochemical; format: biochemical; conditions: for IC50: hMAO-B IC50, mean ± S.D., determined for compounds with more than 60% inhibition at 10 μM; for MAO B inhibition mechanism: Michaelis-Menten curves' fitting, kynuramine as the substrate
T2 construct: purchased Sigma Aldrich (Milan, Italy); host or cells: baculovirus-infected insect cells
T2 sequence (P27338 1-520): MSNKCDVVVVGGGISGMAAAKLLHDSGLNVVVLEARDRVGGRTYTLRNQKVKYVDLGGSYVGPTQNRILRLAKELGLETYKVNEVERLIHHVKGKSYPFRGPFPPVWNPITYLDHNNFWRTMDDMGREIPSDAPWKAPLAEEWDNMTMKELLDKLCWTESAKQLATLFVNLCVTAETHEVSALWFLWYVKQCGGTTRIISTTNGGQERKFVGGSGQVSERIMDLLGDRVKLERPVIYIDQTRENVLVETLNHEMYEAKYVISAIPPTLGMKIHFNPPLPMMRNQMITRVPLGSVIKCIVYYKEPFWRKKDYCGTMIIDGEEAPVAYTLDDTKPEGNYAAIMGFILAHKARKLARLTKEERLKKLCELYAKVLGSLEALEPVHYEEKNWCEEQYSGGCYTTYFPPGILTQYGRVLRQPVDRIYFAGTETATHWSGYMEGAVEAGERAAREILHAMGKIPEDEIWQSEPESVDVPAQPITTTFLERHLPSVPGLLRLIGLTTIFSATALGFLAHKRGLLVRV

human recombinant AChE = biological target: T3, human recombinant AChE (Homo sapiens, UniProt P22303); assay: biochemical; conditions: for inhibition at 10 µM: read-out: hAChE % inhibition at 10 μM
T3 construct: purchased Sigma Aldrich (Milan, Italy)
T3 sequence (P22303 32-614): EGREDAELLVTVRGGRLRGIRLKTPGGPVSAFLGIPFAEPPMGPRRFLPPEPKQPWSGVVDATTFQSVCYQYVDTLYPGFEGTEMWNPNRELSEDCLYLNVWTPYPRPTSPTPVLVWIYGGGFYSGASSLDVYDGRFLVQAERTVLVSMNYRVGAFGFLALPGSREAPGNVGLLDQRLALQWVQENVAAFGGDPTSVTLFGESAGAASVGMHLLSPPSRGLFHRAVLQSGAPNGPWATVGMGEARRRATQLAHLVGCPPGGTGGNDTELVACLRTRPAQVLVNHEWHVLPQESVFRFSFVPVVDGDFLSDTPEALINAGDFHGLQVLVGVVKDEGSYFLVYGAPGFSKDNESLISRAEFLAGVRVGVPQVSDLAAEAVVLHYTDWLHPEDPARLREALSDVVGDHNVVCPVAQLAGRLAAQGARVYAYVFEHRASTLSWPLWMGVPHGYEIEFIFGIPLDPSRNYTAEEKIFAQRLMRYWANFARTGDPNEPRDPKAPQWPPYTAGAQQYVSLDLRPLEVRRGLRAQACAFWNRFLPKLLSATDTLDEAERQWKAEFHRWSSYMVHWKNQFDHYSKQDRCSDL
Description: as §1
(§5) The inhibition of human recombinant AChE or BChE from human serum was determined by applying Ellman’s spectrophotometric method as described in previously reported protocols. The AChE activity was determined in an assay solution containing AChE (0.09 U/mL), 5,5′-dithiobis(2-nitrobenzoic acid) (i.e., the Ellman’s reagent, 0.33 mM), the test compound (10 μM concentration, or seven scalar concentrations for compounds achieving > 60% enzyme inhibition at 10 μM), in 0.1 M PBS pH 8.0. […] The BChE inhibitory activity was similarly determined by using BChE (0.09 U/mL) and butyrylthiocholine iodide (5 μM) as the substrate.
as §2

BChE from human serum = biological target: T4, BChE from human serum (Homo sapiens, UniProt P06276); assay: biochemical; conditions: 10 μM concentration, mean ± S.D. (n = 3), n.i. = no inhibition at 10 μM; for inhibition at 10 µM: read-out: hBChE % inhibition at 10 μM
T4 construct: ChEs (human recombinant AChE and BChE from human serum), purchased from Sigma Aldrich (Milan, Italy); purchased Sigma Aldrich (Milan, Italy); host or cells: human serum (natural source)
T4 sequence (P06276 29-602): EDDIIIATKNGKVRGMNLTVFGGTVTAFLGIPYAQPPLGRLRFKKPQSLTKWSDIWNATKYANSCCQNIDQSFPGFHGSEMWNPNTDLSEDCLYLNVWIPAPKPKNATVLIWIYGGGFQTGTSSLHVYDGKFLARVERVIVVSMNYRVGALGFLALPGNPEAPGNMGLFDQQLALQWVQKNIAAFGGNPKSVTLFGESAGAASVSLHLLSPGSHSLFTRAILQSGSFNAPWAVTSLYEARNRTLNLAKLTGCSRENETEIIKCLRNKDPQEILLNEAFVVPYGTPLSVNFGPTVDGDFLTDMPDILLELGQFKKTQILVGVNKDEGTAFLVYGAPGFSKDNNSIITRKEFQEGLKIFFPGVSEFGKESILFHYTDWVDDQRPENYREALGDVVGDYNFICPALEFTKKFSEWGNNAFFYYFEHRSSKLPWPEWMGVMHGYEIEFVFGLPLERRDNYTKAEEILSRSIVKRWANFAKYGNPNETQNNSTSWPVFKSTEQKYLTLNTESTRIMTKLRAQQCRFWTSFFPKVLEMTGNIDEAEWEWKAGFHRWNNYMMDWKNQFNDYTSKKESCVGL
Description: as §1, §5, §2

[2] = test system: HCT116, colon cancer cell line; assay: Antiproliferative activity, sulforhodamine-B (SRB) assay, HCT116; format: cell-based, human; conditions: Homo sapiens, read-out: Antiproliferative activity IC50, HCT116
Description: as §3, §4

[3] = test system: MCF-7, human breast carcinoma cell; assay: Antiproliferative activity, sulforhodamine-B (SRB) assay, MCF-7; format: cell-based; conditions: Homo sapiens, read-out: Antiproliferative activity IC50, MCF-7
Description: as §3, §4

AChE = test system: AChE; design: method as in PMID 32716595; conditions: read-out: AChE IC50 (previous work); cited from earlier work
MAO B = test system: MAO B; design: method as in PMID 32716595; conditions: read-out: MAO B IC50 (previous work); cited from earlier work
[4] = Homo sapiens, SK-OV-3, 72 h, 72 h exposure, SRB assay, mean ± S.D., >50 = less than 50% growth inhibition at 50 μM
[5] = HCT-116, 72 h exposure, SRB assay, mean ± S.D., >50 = less than 50% growth inhibition at 50 μM
[6] = MCF7, 72 h exposure, SRB assay, mean ± S.D., >50 = less than 50% growth inhibition at 50 μM

Structure (SMILES) | inhibition at 10 µM (human recombinant MAO A) | IC50 [1, 4] | inhibition at 10 µM (BChE from human serum) | IC50 [2, 5] | IC50 [3, 6] | IC50 (human recombinant MAO B) | inhibition at 10 µM (human recombinant AChE) | melting point | further results
CCN1C=Cc2oc3ccccc3c(=O)c2C1C#CC(F)(F)F (stereo not shown) [3c, 2-Ethyl-1-(3,3,3-trifluoroprop-1-yn-1-yl)-1,2-dihydro-10H-chromeno[3,2-c]pyridin-10-one] | 20% | > 50 µM | 15% | 47.2 ± 5.42 µM | 27.8 ± 9.6 µM | – | – | – | inhibition at 10 µM (human recombinant MAO B; read-out: hMAO-B % inhibition at 10 μM): 26%; hAChE % inhibition at 10 μM (human recombinant AChE): n.i.
COc1ccc2[nH]cc(C3C4=C(CCN(C)C4)Oc4ccc(Cl)cc43)c2c1 (stereo not shown) [6b, 8-Chloro-10-(5-metoxy-1H-indole-3-yl)-2-methyl-2,3,4,10-tetrahydro-1H-chromeno[3,2-c]pyridine] | 21% | 22.3 ± 1.42 µM | 15% | 18.6 ± 2.22 µM | 6.62 ± 2.7 µM | 4.72 ± 0.1 µM | 53% | – | –
CN1CCC2=C(C1)C(C[N+](=O)[O-])c1cc(Br)ccc1O2 (stereo not shown) | – | – | – | – | – | – | – | 140 to 142 °C | –
CN1CC=C2Oc3ccc(Br)cc3C=C2C1 [2b, 8-Bromo-2,3-dihydro-2-methyl-1H-chromeno[3,2-c]pyridine] | – | – | – | – | – | 7.88 ± 0.02 µM | 31% | – | IC50 (human recombinant MAO A): 0.703 ± 0.012 µM; Selectivity for MAO A over MAO B (human recombinant MAO A; from MAO A and MAO B inhibition data): about tenfold; IC50 ([1]; Homo sapiens, SK-OV-3, 72 h): > 50 µM; hBChE % inhibition at 10 μM (BChE from human serum): n.i.; IC50 ([2]; HCT-116, 72 h): > 50 µM; IC50 ([3]; MCF7, 72 h): 42.9 ± 4.82 µM
CC(C)N1CCc2oc3ccc(Br)cc3c(=O)c2C1 | – | – | – | – | – | – | – | – | IC50 (AChE): 3.22 µM; IC50 (MAO B): 2.23 µM
CN1CC[C@@]2(O)Oc3ccc(Cl)cc3[C@@H](O)[C@H]2C1 | – | – | – | – | – | – | – | 172 to 173 °C | –
CCOc1cccc2c(=O)c3c(oc12)CCN(Cc1ccccc1)C3 | – | – | – | – | – | – | – | – | IC50 (MAO B): 0.89 µM
COc1cccc2c(=O)c3c(oc12)C=CN(C)C3C#Cc1ccccc1 (stereo not shown) [3b, 6-Metoxy-2-methyl-1-(phenylethinyl)-1H-chromeno[3,2-c]pyridine-10(2H)-one] | 32% | > 50 µM | 19% | 36.1 ± 2.1 µM | 39.7 ± 11.3 µM | 0.63 µM and 0.626 µM | 39% | – | Ki (human recombinant MAO B): 1.41 ± 0.21 µM; MAO B inhibition mechanism (human recombinant MAO B): competitive; MAO B/A selectivity (human recombinant MAO B; from MAO B and MAO A inhibition data): more than twentyfold
CN1CCC2=C(C1)C(c1c[nH]c3ccccc13)c1cc(Cl)ccc1O2 (stereo not shown) [6a, 8-Chloro-10-(1H-indole-3-yl)-2-methyl-2,3,4,10-tetrahydro-1H-chromeno[3,2-c]pyridine] | 21% | 14.7 ± 2.81 µM | 38% | 8.62 ± 2.21 µM | 4.8 ± 0.81 µM | 7.3 ± 0.65 µM | 53% | – | –
CN1CC[C@@]2(O)Oc3ccc([N+](=O)[O-])cc3[C@@H](O)[C@H]2C1 | – | – | – | – | – | – | – | 158 to 159 °C | –
COc1cccc2c1O[C@]1(O)CCN(C)C[C@H]1[C@@H]2O | – | – | – | – | – | – | – | 148 to 149 °C | –
COc1cccc2c1O[C@]1(O)CCN(C)C[C@@H]1[C@@H]2O | – | – | – | – | – | – | – | 134 to 135 °C | –
CN1CC[C@@]2(O)Oc3ccc(Cl)cc3[C@@H](O)[C@@H]2C1 | – | – | – | – | – | – | – | 167 to 168 °C | –
CN1CCC2=C(C1)C(c1c[nH]c3ccc(Br)cc13)c1cc(Cl)ccc1O2 (stereo not shown) [6c, 8-Chloro-10-(5-bromo-1H-indole-3-yl)-2-methyl-2,3,4,10-tetrahydro-1H-chromeno[3,2-c]pyridine] | 29% | 11 µM | 23% | 9.4 ± 0.22 µM | 4.83 ± 0.79 µM | 3.51 ± 0.2 µM | 37% | – | IC50 ([1]; 72 h exposure, SRB assay, mean ± S.D., >50 = less than 50% growth inhibition at 50 μM): 11.3 ± 0.32 µM; Ki (human recombinant MAO B): 6.47 ± 0.22 µM; MAO B inhibition mechanism (human recombinant MAO B): competitive
